Assay results taken from ChEMBL document CHEMBL1201862, “PubChem BioAssay data set” (2004).
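Five concentrations, 48 hours, 96-well plates. GI50 marks 50% less growth.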 The source made the active and inactive calls. Cut-off read from the data, not from the text of the source: active = GI50 up to about 1.1 µM and inactive = higher.

Legend:
Test in all cases: growth of human tumour cells (NCI), 48 h
SN12C = tested on: SN12C
UO-31 = tested on: UO-31
IGROV-1 = tested on: IGROV-1
RPMI-8226 = tested on: RPMI-8226
KM12 = tested on: KM12
NCI-H226 = tested on: NCI-H226
SK-MEL-5 = tested on: SK-MEL-5
SF-268 = tested on: SF-268
XF498 = tested on: XF498
SF-295 = tested on: SF-295
UACC-257 = tested on: UACC-257
SNB-19 = tested on: SNB-19
EKVX = tested on: EKVX
SW-620 = tested on: SW-620
SK-MEL-2 = tested on: SK-MEL-2
KM-20L2 = tested on: KM-20L2
RXF 393 = tested on: RXF 393
NCI-H23 = tested on: NCI-H23
HCT-15 = tested on: HCT-15
SK-MEL-28 = tested on: SK-MEL-28
OVCAR-3 = tested on: OVCAR-3
HCC 2998 = tested on: HCC 2998
HL-60 = tested on: HL-60
HOP-92 = tested on: HOP-92
U-251 = tested on: U-251
MOLT-4 = tested on: MOLT-4
HT-29 = tested on: HT-29
A549 = tested on: A549
DMS-273 = tested on: DMS-273
Malme-3M = tested on: Malme-3M
UACC-62 = tested on: UACC-62
SNB-78 = tested on: SNB-78
OVCAR-8 = tested on: OVCAR-8
NCI-H522 = tested on: NCI-H522
SK-OV-3 = tested on: SK-OV-3
HOP-62 = tested on: HOP-62
NCI/ADR-RES = tested on: NCI/ADR-RES
SF-539 = tested on: SF-539
NCI-H460 = tested on: NCI-H460
K562 = tested on: K562
DLD-1 = tested on: DLD-1
MCF7 = tested on: MCF7
SNB-75 = tested on: SNB-75
OVCAR-4 = tested on: OVCAR-4
HCT-116 = tested on: HCT-116
M19-MEL = tested on: M19-MEL
HOP-18 = tested on: HOP-18
LOX IMVI = tested on: LOX IMVI
A498 = tested on: A498
CCRF-CEM = tested on: CCRF-CEM
CAKI-1 = tested on: CAKI-1
COLO 205 = tested on: COLO 205
OVCAR-5 = tested on: OVCAR-5
TK-10 = tested on: TK-10
LXFL 529 = tested on: LXFL 529
T47D = tested on: T47D
DU-145 = tested on: DU-145
ACHN = tested on: ACHN
MDA-N = tested on: MDA-N
786-0 = tested on: 786-0
Hs-578T = tested on: Hs-578T
MDA-MB-435 = tested on: MDA-MB-435
MDA-MB-231 = tested on: MDA-MB-231
M14 = tested on: M14
DMS-114 = tested on: DMS-114
SR = tested on: SR
PC-3 = tested on: PC-3
BT-549 = tested on: BT-549

For CCCCS(=O)(=O)Nc1ccc(Nc2c3ccccc3nc3ccccc23)c(OC)c1, the GI50 (SN12C) was 0.828 µM (active), the GI50 (UO-31) was 1.5 µM (inactive) and the GI50 (IGROV-1) was 5.57 µM (inactive). For the same molecule, the GI50 (RPMI-8226) was 1.74 µM (inactive), the GI50 (KM12) was 3.45 µM (inactive) and the GI50 (NCI-H226) was 0.881 µM (active). For the same molecule, the GI50 (SK-MEL-5) was 5.2 µM (inactive), the GI50 (SF-268) was 2.25 µM (inactive) and the GI50 (XF498) was 2.19 µM (inactive). For the same molecule, the GI50 (SF-295) was 0.902 µM (active), the GI50 (UACC-257) was 6 µM (inactive) and the GI50 (SNB-19) was 1.94 µM (inactive). For the same molecule, the GI50 (EKVX) was 1.91 µM (inactive), the GI50 (SW-620) was 0.675 µM (active) and the GI50 (SK-MEL-2) was 16.9 µM (inactive). The GI50 (KM-20L2) was 3.14 µM (inactive), the GI50 (RXF 393) was 4.39 µM (inactive) and the GI50 (NCI-H23) was 1.11 µM (active). For the same molecule, the GI50 (HCT-15) was 1.71 µM, the GI50 (SK-MEL-28) was 5.74 µM (inactive) and the GI50 (OVCAR-3) was 6.98 µM (inactive). The GI50 (HCC 2998) was 3.21 µM (inactive), the GI50 (HL-60) was 183 nM (active) and the GI50 (HOP-92) was 2.15 µM (inactive). For the same molecule, the GI50 (U-251) was 0.773 µM (active), the GI50 (MOLT-4) was 0.0718 µM (active) and the GI50 (HT-29) was 1.67 µM (inactive). For the same molecule, the GI50 (A549) was 0.232 µM (active), the GI50 (DMS-273) was 0.395 µM (active) and the GI50 (Malme-3M) was 2.21 µM (inactive). The GI50 (UACC-62) was 1.78 µM (inactive), the GI50 (SNB-78) was 5.5 µM (inactive) and the GI50 (OVCAR-8) was 2 µM (inactive). For the same molecule, the GI50 (NCI-H522) was 5.33 µM (inactive), the GI50 (SK-OV-3) was 5.07 µM (inactive) and the GI50 (HOP-62) was 1.86 µM (inactive). The GI50 (NCI/ADR-RES) was 5.36 µM (inactive), the GI50 (SF-539) was 1.08 µM (active) and the GI50 (NCI-H460) was 0.0863 µM (active). For the same molecule, the GI50 (K562) was 2.51 µM (inactive), the GI50 (DLD-1) was 7.6 µM (inactive) and the GI50 (MCF7) was 1.13 µM (inactive). For the same molecule, the GI50 (SNB-75) was 1.52 µM (inactive), the GI50 (OVCAR-4) was 5.6 µM (inactive) and the GI50 (HCT-116) was 1.73 µM (inactive). The GI50 (M19-MEL) was 4.61 µM (inactive), the GI50 (HOP-18) was 7.52 µM (inactive) and the GI50 (LOX IMVI) was 1.26 µM (inactive). For the same molecule, the GI50 (A498) was 2.05 µM (inactive), the GI50 (CCRF-CEM) was 338 nM (active) and the GI50 (CAKI-1) was 0.574 µM (active). The GI50 (COLO 205) was 5.78 µM (inactive) and the GI50 (OVCAR-5) was 13.7 µM (inactive).
With Cc1cc(O)nc(NN2C(Cl)C(=O)C2c2ccc(Cl)cc2)n1 (stereo not drawn) the GI50 (SN12C) was 16.7 µM (inactive), the GI50 (UO-31) was 25.6 µM (inactive) and the GI50 (IGROV-1) was 3.61 µM (inactive). For the same molecule, the GI50 (RPMI-8226) was 8.55 µM (inactive), the GI50 (KM12) was 10.6 µM (inactive) and the GI50 (TK-10) was 19.8 µM (inactive). The GI50 (NCI-H226) was 11.9 µM (inactive), the GI50 (SK-MEL-5) was 12.8 µM (inactive) and the GI50 (LXFL 529) was 5.86 µM (inactive). The GI50 (T47D) was 16.6 µM (inactive), the GI50 (SF-268) was 19.8 µM (inactive) and the GI50 (SF-295) was 8.61 µM (inactive). The GI50 (UACC-257) was 21.6 µM (inactive), the GI50 (DU-145) was 23.3 µM (inactive) and the GI50 (SNB-19) was 19.4 µM (inactive). The GI50 (EKVX) was 16.6 µM (inactive), the GI50 (SW-620) was 22.5 µM (inactive) and the GI50 (ACHN) was 23 µM (inactive). The GI50 (SK-MEL-2) was 19.3 µM (inactive), the GI50 (KM-20L2) was 20.6 µM (inactive) and the GI50 (MDA-N) was 8.53 µM (inactive). The GI50 (786-0) was 15.6 µM (inactive), the GI50 (RXF 393) was 17.4 µM (inactive) and the GI50 (NCI-H23) was 15.8 µM (inactive). For the same molecule, the GI50 (Hs-578T) was 30 µM (inactive), the GI50 (HCT-15) was 15.1 µM and the GI50 (SK-MEL-28) was 18.2 µM (inactive). The GI50 (OVCAR-3) was 13.6 µM (inactive), the GI50 (HCC 2998) was 17 µM (inactive) and the GI50 (MDA-MB-435) was 23.4 µM (inactive). The GI50 (HL-60) was 3180 nM (inactive), the GI50 (HOP-92) was 12.9 µM (inactive) and the GI50 (U-251) was 20.5 µM (inactive). For the same molecule, the GI50 (MOLT-4) was 6.65 µM (inactive), the GI50 (HT-29) was 18 µM (inactive) and the GI50 (A549) was 26.3 µM (inactive). For the same molecule, the GI50 (DMS-273) was 11.9 µM (inactive), the GI50 (MDA-MB-231) was 26.4 µM (inactive) and the GI50 (Malme-3M) was 16.8 µM (inactive). The GI50 (UACC-62) was 16.7 µM (inactive), the GI50 (M14) was 13.4 µM (inactive) and the GI50 (DMS-114) was 13.5 µM (inactive). For the same molecule, the GI50 (SR) was 1.27 µM (inactive), the GI50 (SNB-78) was 17.9 µM (inactive) and the GI50 (OVCAR-8) was 19.1 µM (inactive). For the same molecule, the GI50 (PC-3) was 32.7 µM (inactive), the GI50 (BT-549) was 20.5 µM (inactive) and the GI50 (SK-OV-3) was 41.8 µM (inactive). For the same molecule, the GI50 (HOP-62) was 19.6 µM (inactive), the GI50 (NCI/ADR-RES) was 20.7 µM (inactive) and the GI50 (SF-539) was 16.3 µM (inactive). The GI50 (NCI-H460) was 16.4 µM (inactive), the GI50 (K562) was 2.88 µM (inactive) and the GI50 (MCF7) was 12.8 µM (inactive). For the same molecule, the GI50 (SNB-75) was 17.4 µM (inactive), the GI50 (OVCAR-4) was 22.9 µM (inactive) and the GI50 (HCT-116) was 11.3 µM (inactive). The GI50 (M19-MEL) was 17.7 µM (inactive), the GI50 (HOP-18) was 8.55 µM (inactive) and the GI50 (LOX IMVI) was 4.15 µM (inactive). The GI50 (A498) was 18.2 µM (inactive), the GI50 (CCRF-CEM) was 1870 nM (inactive) and the GI50 (CAKI-1) was 15.7 µM (inactive). The GI50 (COLO 205) was 17.2 µM (inactive) and the GI50 (OVCAR-5) was 40 µM (inactive).
